Results reported in patent publication US7452862B2, “Conformationally-controlled biologically active macrocyclic small molecules as motilin antagonists or ghrelin agonists” (Tranzyme Pharma, Inc., priority 2003, dated 2008).

Target: T1, human ghrelin receptor (hGHS-R1a) (Homo sapiens, UniProt Q92847)
T1 construct: purchased PerkinElmer BioSignal RBHGHSM, lot#1887; host or cells: HEK-293 cells, stably transfected
Assay: Competitive radioligand binding assay (ghrelin receptor), Method B2
Conditions: read-out: Binding Affinity [Ki (μM)]
Experimental: (§1) The compounds of the present invention were evaluated for their ability to interact at the human motilin receptor and the human ghrelin receptor utilizing competitive redioligand binding assays as described in Method B1 and B2, respectively. Further characterization of the interaction can be performed utilizing the functional assays described in Methods B3 and B4 for the motilin and ghrelin receptors, respectively. All of these methods can be conducted, if so desired, in a high throughput manner to permit the simultaneous evaluation of many compounds.
Competitive Radioligand Binding Assay (Ghrelin Receptor)
The competitive binding assay at the human growth hormone secretagogue receptor (hGHS-R1a) was carried out analogously to assays described in the literature. (Bednarek M A et al. (2000), Structure-function studies on the new growth hormone-releasing peptide ghrelin: minimal sequence of ghrelin necessary for activation of growth hormone secretagogue receptor 1 a; J Med Chem 43:43704376. Palucki B L et al. (2001), Spiro(indoline-3,4′-piperidine) growth hormone secretagogues as ghrelin mimetics; Bioorg Med Chem Lett 11:1955-1957.)
• Membranes (GHS-R/HEK 293) were prepared from HEK-293 cells stably transfected with the human ghrelin receptor (hGHS-Rla). These membranes were provided by PerkinElmer BioSignal® (#RBHGHSM, lot#1887, PerkinlElmer, Wellesley, MA) and utilized at a quantity of 0.71 μg/assay point. • [^125I]-Ghrelin (PerkinElmer, #NEX-388); final concentration: 0.0070-0.0085 nM • Ghrelin(Bachem, #H-4864, Bachem Bioscience Inc., King of Prussia, PA); final concentration: 1 μM • Multiscreen® Harvest plates-GF/C (Millipore, #MAHFC1H60, Billerica, MA) • Deep-well polypropylene titer plate (Beckman Coulter, #267006, Fullerton, CA) • TopSeal-A™ (PerkinElmer, #6005185, Wellesley, MA) • Bottom seal (Millipore, #MATAH0P00) • MicroScint-0™ (PerkinElmer, #6013611, Wellesley, MA) • Binding Buffer: 25 mM Hepes (pH 7.4), 1 mM CaCl2, 5 mM MgCl2, 2.5 mM EDTA, 0.4% BSA Assay Volumes
Competition experiments were performed in a 300 μL filtration assay format. • 220 μL of membranes diluted in binding buffer • 40 μL of compound diluted in binding buffer • 40 μL of radioligand ([^125I]-Ghrelin) diluted in binding buffer
Final test concentrations (N=1) for compounds of the present invention: • 10, 1, 0.5, 0.2, 0.1, 0.05, 0.02, 0.01, 0.005, 0.002, 0.001 μM. Compound Handling
(§2) Compounds were provided frozen on dry ice at a stock concentration of 10 mM diluted in 100% DMSO and stored at −80° C. until the day of testing. On the test day, compounds were allowed to thaw at rt overnight and then diluted in assay buffer according to the desired test concentrations. Under these conditions, the maximal final DMSO concentration in the assay was 0.1%.
In deep-well plates, 220 μL of diluted cell membranes (final concentration: 0.71 μg/well) were combined with 40 μL of either binding buffer (total binding, N =5), 1 μM ghrelin (non-specific binding, N =3) or the appropriate concentration of test compound (N =2 for each test concentration). The reaction was initiated by addition of 40 μL of [^125I]-ghrelin (final conc. 0.0070-0.0085 nM) to each well. Plates were sealed with TopSeal-A™, vortexed gently and incubated at rt for 30 min. The reaction was arrested by filtering samples through Multiscreen® Harvest plates (pre-soaked in 0.5% polyethyleneimine) using a Tomtec®Harvester (Tomtec, Hamden, CT), washed 9 times with 500 μL of cold 50 mM Tris-HCl (pH 7.4, 4° C), and then plates were air-dried in a fumehood for 30 min. A bottom seal was applied to the plates prior to the addition of 25 μL of MicroScint-0™ to each well. Plates were than sealed with TopSeal-A™ and counted for 30 sec per well on a TopCount® Microplate Scintillation and Luminescence Counter (PerkinElmer, Wellesley, MA) using a count delay of 60 sec. Results were expressed as counts per minute (cpm). […]

T1 sequence (Q92847 whole entry): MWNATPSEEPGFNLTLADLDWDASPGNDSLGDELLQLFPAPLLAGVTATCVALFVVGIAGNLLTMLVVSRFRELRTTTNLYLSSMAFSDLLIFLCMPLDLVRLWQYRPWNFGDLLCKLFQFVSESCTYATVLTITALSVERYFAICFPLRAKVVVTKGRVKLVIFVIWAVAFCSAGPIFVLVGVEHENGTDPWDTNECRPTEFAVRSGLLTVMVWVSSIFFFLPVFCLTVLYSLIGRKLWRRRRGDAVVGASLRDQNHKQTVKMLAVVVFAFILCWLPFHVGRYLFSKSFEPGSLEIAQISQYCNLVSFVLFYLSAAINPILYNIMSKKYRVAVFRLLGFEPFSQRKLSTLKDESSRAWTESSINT

| Ki | Compound |
| --- | --- |
| 0.001 to 0.1 µM | CCC(C)[C@@H]1NC[C@@H](C)Oc2ccccc2CCCNC(=O)[C@@H](Cc2ccccc2)NC(=O)[C@@H](C)N(C)C1=O (stereo partly drawn) [compound 242] |
| 0.001 to 0.1 µM | CCC(C)C1NCC(C)Oc2ccccc2CCCNC(=O)C(Cc2cccc(Cl)c2)NC(=O)C2(CCCC2)NC1=O (stereo not drawn) [compound 254] |
| 0.001 to 0.1 µM | CC1COc2ccccc2CCCNC(=O)C(Cc2ccc(F)cc2)NC(=O)C(C)N(C)C(=O)C(C2CC2)N1 (stereo not drawn) [compound 241] |
| 0.001 to 0.1 µM | CCC(C)C1NCCOc2ccccc2CC(C)CNC(=O)C(Cc2cccc(Cl)c2)NC(=O)C2(CCCC2)NC1=O (stereo not drawn) [compound 257] |
| 0.1 to 1 µM | CCC(C)C1NCCOc2ccccc2C(C)CCNC(=O)C(Cc2cccc(Cl)c2)NC(=O)C2(CCCC2)NC1=O (stereo not drawn) [compound 256] |
| 0.001 to 0.1 µM | CCC(C)[C@@H]1NC[C@H](C)Oc2ccccc2CCCNC(=O)[C@@H](Cc2ccccc2)NC(=O)[C@@H](C)N(C)C1=O (stereo partly drawn) [compound 243] |
| 0.001 to 0.1 µM | CC1CNC(C2CC2)C(=O)N(C)C(C)C(=O)NC(Cc2ccc(F)cc2)C(=O)NCCCc2ccccc2O1 (stereo not drawn) [compound 244] |
| 0.1 to 1 µM | CC1CNC(=O)C(Cc2ccc(F)cc2)NC(=O)C(C)N(C)C(=O)C(C2CC2)NCCOc2ccccc2C1 (stereo not drawn) [compound 248] |

Target: T2, human motilin receptor (Homo sapiens, UniProt O43193)
T2 construct: purchased PerkinElmer 6110544; host or cells: CHO cells, stably transfected
Assay: Competitive radioligand binding assay (motilin receptor), Method B1
Conditions: read-out: Binding Affinity [Ki (μM)]
Experimental: as §1
Competitive Radioligand Binding Assay (Motilin Receptor)
• Membranes were prepared from CHO cells stably transfected with the human motilin receptor and utilized at a quantity of 1.5 μg/assay point. [PerkinElmer™ SignalScreen® Product #6110544, PerkinElmer, Inc. Wellesley, MA] • [^125I]-Motilin (PerkinElmer, #NEX-378); final concentration: 0.04-0.06 nM • Motilin (Bachem™, #H-4385, Bachem Bioscience Inc., King of Prussia, PA.); final concentration: 1 μM • Multiscreen® Harvest plates-GF/B (Millipore™, #MAHFB1H60, Billerica, MA) • Deep-well polypropylene titer plate (Beckman Coulter™,#267006, Fullerton, CA) • TopSeal-A™ (PerkinElmer, #6005185, Wellesley, MA) • Bottom seal (Millipore, #MATAH0P00) • MicroScint-0™(PerkinElmer,#6013611, Wellesley, MA) • Binding Buffer: 50 mM Tris-HCl (pH 7.4), 10 mM MgCl2, 1 mM EDTA, 0.1% BSA Assay Volumes: • 150 μL of membranes diluted in binding buffer • 10 μL of compound diluted in binding buffer • 10 μL of radioligand ([^125I]-Motilin) diluted in binding buffer Final Test Concentrations (N=11) for Compounds: • 10, 5, 2, 1, 0.5, 0.2, 0.1, 0.05, 0.02, 0.01, 0.005 μM. Compound Handling:
as §2, with “−20°” for “−80°”, “room temperature” for “rt overnight”, “than” for “then”, “maximum” for “maximal”, “0.5%.” for “0.1%.”
In deep-well plates, diluted cell membranes (1.5 μg/mL) are combined with 10 μL of either binding buffer (total binding, N=5), 1 μM motilin (non-specific binding, N=3) or the appropriate concentration of test compound. The reaction is initiated by addition of 10 μl of [^125I]-motilin (final conc. 0.04-0.06 nM) to each well. Plates are sealed with TopSeal-A™, vortexed gently and incubated at room temperature for 2 hours. The reaction is arrested by filtering samples through pre-soaked (0.3% polyethyleneimine, 2 h) Multiscreen®Harvest plates using a Tomtec® Harvester (Tomtec, Hamden, CT), washed 9 times with 500 μL of cold 50 mM Tris-HCI (pH 7.4), and than plates are air-dried in a fumehood for 30 minutes. A bottom seal is applied to the plates prior to the addition of 25 μL of MicroScint-0 ® to each well. Plates are then sealed with TopSeal-A™ and counted for 30 sec per well on a TopCount® Microplate Scintillation and Luminescence Counter (PerkinElmer, Wellesley, MA) where results are expressed as counts per minute (cpm).
Data are analyzed by GrapbPad™ Prism® (GraphPad Software, San Diego, CA) using a variable slope non-linear regression analysis.
[formula] where total and non-specific binding represent the cpm obtained in the absence or presence of 1 μM motilin, respectively.

T2 sequence (O43193 whole entry): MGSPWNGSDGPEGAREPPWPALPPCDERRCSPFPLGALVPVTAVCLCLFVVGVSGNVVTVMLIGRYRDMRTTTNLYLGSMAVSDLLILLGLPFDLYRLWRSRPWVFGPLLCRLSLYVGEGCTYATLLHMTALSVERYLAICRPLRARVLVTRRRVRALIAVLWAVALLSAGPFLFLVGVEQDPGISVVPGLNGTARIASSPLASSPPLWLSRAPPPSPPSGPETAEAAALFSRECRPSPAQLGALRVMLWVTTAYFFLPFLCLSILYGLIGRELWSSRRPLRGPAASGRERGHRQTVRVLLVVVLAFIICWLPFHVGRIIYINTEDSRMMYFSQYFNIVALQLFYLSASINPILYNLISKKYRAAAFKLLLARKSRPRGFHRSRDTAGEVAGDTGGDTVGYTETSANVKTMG

| Ki | Compound |
| --- | --- |
| 0.001 to 0.1 µM | CC(C)[C@H]1NC(=O)[C@@H](Cc2cccc(Cl)c2)NCCOc2ccccc2C[C@H](C)CNC(=O)[C@H](CC2CC2)NC1=O [compound 207] |
| 0.001 to 0.1 µM | CC(C)[C@H]1NC(=O)[C@@H](Cc2cccc(Cl)c2)NCCOc2ccccc2C[C@@H](O)CNC(=O)[C@H](CC2CC2)NC1=O [compound 216] |
| 0.1 to 1 µM | CC(C)[C@H]1NC(=O)[C@@H](Cc2cccc(F)c2)NCCOc2ccccc2C[C@@H](C)CNC(=O)[C@H](CN(C)C)NC1=O [compound 205] |
| 0.001 to 0.1 µM | CC1CNC(=O)[C@H](CC2CC2)NC(=O)[C@@H](C(C)C)NC(=O)[C@@H](Cc2cccc(Cl)c2)NCCOc2ccccc2C1 (stereo partly drawn) [compound 209] |
| 0.1 to 1 µM | CCC[C@@H]1NC(=O)[C@@H](C(C)C)NC(=O)[C@@H](Cc2ccc(O)cc2)NC[C@@H](C)Oc2ccccc2CCCNC1=O [compound 227] |
| 0.1 to 1 µM | CC(C)[C@H]1NC(=O)[C@@H](Cc2cccc(F)c2)NC[C@@H](C)Oc2ccccc2CCCNC(=O)[C@H](CC2CC2)NC1=O [compound 220] |
| 0.001 to 0.1 µM | CC(C)[C@H]1NC(=O)[C@@H](Cc2cccc(Cl)c2)NCCOc2ccccc2C[C@@H](C)CNC(=O)[C@H](CC2CC2)NC1=O [compound 211] |
| 0.001 to 0.1 µM | CC(C)[C@H]1NC(=O)[C@@H](Cc2cccc(Cl)c2)N[C@@H](C)COc2ccccc2CCCNC(=O)[C@H](CNC(=N)N)NC1=O [compound 203] |
| 0.001 to 0.1 µM | CC1COc2ccccc2CCCNC(=O)[C@H](CC2CC2)NC(=O)[C@@H](C(C)C)NC(=O)[C@@H](Cc2cccc(Cl)c2)N1 (stereo partly drawn) [compound 223] |
| 0.001 to 0.1 µM | CC(C)[C@H]1NC(=O)[C@@H](Cc2cccc(F)c2)N[C@@H](C)COc2ccccc2CCCNC(=O)[C@H](CC2CC2)NC1=O [compound 208] |
| 0.001 to 0.1 µM | CCC[C@@H]1NC(=O)[C@@H](C(C)C)NC(=O)[C@@H](Cc2ccc(OC)cc2)NC(C)COc2ccccc2CCCNC1=O (stereo partly drawn) [compound 222] |
| 0.001 to 0.1 µM | CC(C)[C@H]1NC(=O)[C@@H](Cc2cccc(C(F)(F)F)c2)NCCOc2ccccc2C[C@@H](C)CNC(=O)[C@H](CNC(=N)N)NC1=O [compound 204] |
| 0.001 to 0.1 µM | CC(C)[C@H]1NC(=O)[C@@H](Cc2cccc(C(F)(F)F)c2)NCCOc2ccccc2C[C@H](C)CNC(=O)[C@H](CNC(=N)N)NC1=O [compound 201] |
| 0.001 to 0.1 µM | CC(C)[C@H]1NC(=O)[C@@H](Cc2cccc(F)c2)NCCOc2ccccc2C[C@@H](C)CNC(=O)[C@H](CC2CC2)NC1=O [compound 214] |
| 0.1 to 1 µM | CCC[C@@H]1NC(=O)[C@@H](C(C)C)NC(=O)[C@@H](Cc2ccc(O)cc2)NC[C@H](C)Oc2ccccc2CCCNC1=O [compound 226] |
| 0.1 to 1 µM | CC(C)[C@H]1NC(=O)[C@@H](Cc2cccc(F)c2)NCCOc2ccccc2C[C@H](O)CNC(=O)[C@H](CC2CC2)NC1=O [compound 218] |
| 0.001 to 0.1 µM | CC(C)[C@H]1NC(=O)[C@@H](Cc2cccc(Cl)c2)NCCOc2ccccc2C[C@H](O)CNC(=O)[C@H](CC2CC2)NC1=O [compound 215] |
| 0.1 to 1 µM | CC(C)[C@H]1NC(=O)[C@@H](Cc2cccc(F)c2)N[C@H](C)COc2ccccc2CCCNC(=O)[C@H](CC2CC2)NC1=O [compound 217] |
| 0.1 to 1 µM | CC(C)[C@H]1NC(=O)[C@@H](Cc2cccc(F)c2)NCCOc2ccccc2C[C@@H](O)CNC(=O)[C@H](CC2CC2)NC1=O [compound 219] |
